Assay results published in patent US20210106703A1, “RADIOIMMUNOCONJUGATES IN COMBINATION WITH OTHER DRUGS AS TREATMENT AGAINST NHL” (Nordic Nanovector ASA, priority 2017, published 2021).
Read-outs that look alike come from different tables or passages of the source.

Tests used:
RIVA cells = assay: Real Time Glo viability assay, Betalutin and cell cycle inhibitors (Example 2); format: cell-based, human; settings: for viability at 0.1 µM / viability at 1 µM: Homo sapiens, read-out: Growth inhibition (signal treated/control; 1 = no change); for viability at 0.1 µM: drug 100 nM
Experimental: (§1) Cells were split twice a week 1:3-1:5 depending on cell density. […] Real Time Glo was purchased from Promega. 384 well plates were purchased from Greiner Bio-One.
(§2) Cells were treated for 18-20 h with Betalutin at a final concentration of 1 μg/ml and 2 μg/ml in 6-well cell culture plates with shaking. After treatment, PBS was added to the cells, and the cells pelleted. Cells were first resuspended in 1 ml PBS, then washed twice in PBS and finally diluted in growth medium at the desired concentration. All cell lines were treated at a cell concentration of 2.5*10^6 cells/ml.
(§3) Regardless of cell number the culturing volume was 25 μl. For Real Time Glo, the Cell Viability Substrate and NanoLuc® Enzyme were diluted 1:500 in growth medium, and 25 μL of diluted reagents added to each well. All reagents were equilibrated to 37° C. Cells were incubated with the reaction mix for 1 h at 37° C. before the first measurement of luminescence. Measurements were repeated as often as required within 72 h after adding the reagents. Digitonin was added to cells at 200 μg/ml to record background luminescence of dead cells. A Tecan SPARK 10M plate reader was used to measure luminescence, with an integration time set to 1 sec.
(§4) Growth inhibition was calculated by dividing the luminescence signal of the treated cells by the luminescence signal of the control cells for each day of measurement after start of treatment [Table 1].
(§5) To evaluate effects of the drugs alone [(−)Betalutin] and their combination with Betalutin [(+)Betalutin], we calculated the Z-score for each sample (ZdrugX=1-(+)BetalutindrugX/(−)BetalutindrugX), where (+)BetalutindrugX and (−) BetalutindrugX are the measured luminescence intensity values for drug X in presence and absence of Betalutin, respectively. The calculation of Z-score values separately for each plate enabled comparison of results across plates, despite variations between the plates in overall signal intensity.

U2932 cells = assay: as above; format: cell-based, human; settings: for viability at 0.1 µM / viability at 1 µM: Homo sapiens; for viability at 0.1 µM: U2932, U2932, drug 100 nM
Experimental: as §1, §2, §3, §4, §5

[1] = RIVA, drug 1 μM, +Betalutin, Dy3
[2] = RIVA, drug 1 μM, +Betalutin, Dy4
[3] = RIVA, drug 1 μM, +Betalutin, Dy5
[4] = RIVA, drug 1 μM, +Betalutin, Dy6
[5] = RIVA, drug 1 μM, −Betalutin, Dy3
[6] = RIVA, drug 1 μM, −Betalutin, Dy4
[7] = RIVA, drug 1 μM, −Betalutin, Dy5
[8] = RIVA, drug 1 μM, −Betalutin, Dy6
[9] = (+)Betalutin, Dy3, read-out: Growth inhibition (signal treated/control; 1 = no change)
[10] = (+)Betalutin, Dy4, read-out: Growth inhibition (signal treated/control; 1 = no change)
[11] = (+)Betalutin, Dy5, read-out: Growth inhibition (signal treated/control; 1 = no change)
[12] = (+)Betalutin, Dy6, read-out: Growth inhibition (signal treated/control; 1 = no change)
[13] = (−)Betalutin, Dy3, read-out: Growth inhibition (signal treated/control; 1 = no change)
[14] = (−)Betalutin, Dy4, read-out: Growth inhibition (signal treated/control; 1 = no change)
[15] = (−)Betalutin, Dy5, read-out: Growth inhibition (signal treated/control; 1 = no change)
[16] = (−)Betalutin, Dy6, read-out: Growth inhibition (signal treated/control; 1 = no change)
[17] = U2932, U2932, drug 1 μM, (+)Betalutin, Dy3, read-out: Growth inhibition (signal treated/control; 1 = no change)
[18] = U2932, U2932, drug 1 μM, (+)Betalutin, Dy4, read-out: Growth inhibition (signal treated/control; 1 = no change)
[19] = U2932, U2932, drug 1 μM, (+)Betalutin, Dy5, read-out: Growth inhibition (signal treated/control; 1 = no change)
[20] = U2932, U2932, drug 1 μM, (+)Betalutin, Dy6, read-out: Growth inhibition (signal treated/control; 1 = no change)
[21] = U2932, U2932, drug 1 μM, (−)Betalutin, Dy3, read-out: Growth inhibition (signal treated/control; 1 = no change)
[22] = U2932, U2932, drug 1 μM, (−)Betalutin, Dy4, read-out: Growth inhibition (signal treated/control; 1 = no change)
[23] = U2932, U2932, drug 1 μM, (−)Betalutin, Dy5, read-out: Growth inhibition (signal treated/control; 1 = no change)
[24] = U2932, U2932, drug 1 μM, (−)Betalutin, Dy6, read-out: Growth inhibition (signal treated/control; 1 = no change)

Structure (SMILES) | viability at 0.1 µM (RIVA cells; RIVA, +Betalutin, Dy3) [%] | viability at 0.1 µM (RIVA cells; RIVA, +Betalutin, Dy4) [%] | viability at 0.1 µM (RIVA cells; RIVA, +Betalutin, Dy5) [%] | viability at 0.1 µM (RIVA cells; RIVA, +Betalutin, Dy6) [%] | viability at 0.1 µM (RIVA cells; RIVA, −Betalutin, Dy3) [%] | viability at 0.1 µM (RIVA cells; RIVA, −Betalutin, Dy4) [%] | viability at 0.1 µM (RIVA cells; RIVA, −Betalutin, Dy5) [%] | viability at 0.1 µM (RIVA cells; RIVA, −Betalutin, Dy6) [%] | viability at 1 µM (RIVA cells; [1]) [%] | viability at 1 µM (RIVA cells; [2]) [%] | viability at 1 µM (RIVA cells; [3]) [%] | viability at 1 µM (RIVA cells; [4]) [%] | viability at 1 µM (RIVA cells; [5]) [%] | viability at 1 µM (RIVA cells; [6]) [%] | viability at 1 µM (RIVA cells; [7]) [%] | viability at 1 µM (RIVA cells; [8]) [%] | viability at 0.1 µM (U2932 cells; [9]) [%] | viability at 0.1 µM (U2932 cells; [10]) [%] | viability at 0.1 µM (U2932 cells; [11]) [%] | Synergy for the combination with Betalutin (U2932 cells; U2932, drug 100 nM) | other results
Cc1csc(-c2nnc(Nc3ccc(Oc4ncccc4-c4ccnc(N)n4)cc3)c3ccccc23)c1 [AMG 900] | 22 | 16 | 9 | 8 | 82 | 85 | 65 | 51 | 9 | 8 | 5 | 4 | 60 | 57 | 49 | 40 | 89 | 78 | 77 | Bliss + Z-score | viability at 0.1 µM (U2932 cells; [12]): 52%; viability at 0.1 µM (U2932 cells; [13]): 96%; viability at 0.1 µM (U2932 cells; [14]): 97%; viability at 0.1 µM (U2932 cells; [15]): 92%; viability at 0.1 µM (U2932 cells; [16]): 72%; viability at 1 µM (U2932 cells; [17]): 77%; viability at 1 µM (U2932 cells; [18]): 77%; viability at 1 µM (U2932 cells; [19]): 80%; viability at 1 µM (U2932 cells; [20]): 58%; viability at 1 µM (U2932 cells; [21]): 83%; viability at 1 µM (U2932 cells; [22]): 96%; viability at 1 µM (U2932 cells; [23]): 96%; viability at 1 µM (U2932 cells; [24]): 81%; Synergy for the combination with Betalutin (U2932 cells; U2932, drug 1 μM): Z-score
NC(=O)Nc1cc(-c2cccc(F)c2)sc1C(=O)N[C@H]1CCCNC1 [AZD7762] | – | – | – | – | – | – | – | – | – | – | – | – | – | – | – | – | – | – | – | Bliss + Z-score | viability at 1 µM (RIVA cells): 3%; Growth inhibition (signal treated/control; 1 = no change) (RIVA cells; human): 0.34; viability at 1 µM (U2932 cells; U2932, read-out: Growth inhibition (signal treated/control; 1 = no change)): 4%; Growth inhibition (signal treated/control; 1 = no change) (U2932 cells; human): 0.03
Cc1nc(N)sc1-c1ccnc(Nc2ccc(N3CCOCC3)cc2)n1 [CYC116] | 13 | 10 | 6 | 6 | 93 | 94 | 114 | 92 | 22 | 20 | 14 | 14 | 62 | 78 | 70 | 65 | 92 | 94 | 80 | Bliss + Z-score | viability at 0.1 µM (U2932 cells; [12]): 75%; viability at 0.1 µM (U2932 cells; [13]): 94%; viability at 0.1 µM (U2932 cells; [14]): 97%; viability at 0.1 µM (U2932 cells; [15]): 106%; viability at 0.1 µM (U2932 cells; [16]): 121%; viability at 1 µM (U2932 cells; [17]): 72%; viability at 1 µM (U2932 cells; [18]): 82%; viability at 1 µM (U2932 cells; [19]): 74%; viability at 1 µM (U2932 cells; [20]): 56%; viability at 1 µM (U2932 cells; [21]): 85%; viability at 1 µM (U2932 cells; [22]): 89%; viability at 1 µM (U2932 cells; [23]): 83%; viability at 1 µM (U2932 cells; [24]): 61%; Synergy for the combination with Betalutin (U2932 cells; U2932, drug 1 μM): Z-score
